In patent publication US9868772B2 (INDIANA UNIVERSITY RESEARCH AND TECHNOLOGY CORPORATION, priority 2012, dated 2018) one finds EC50 data, which are given here for five molecules.

Common to all, as to experiment: cAMP induction, firefly luciferase reporter assay in HEK293 cells co-transfected with receptor
Common to all, as to assay type: cell-based
On the technique in general: Reporter assays use an easily measured gene product as a stand-in for the process of interest.

One assay deals with T1, GIP receptor (Homo sapiens, UniProt P48546).
T1 construct: expressed in transfected cells; host or cells: HEK293
T1 sequence (P48546 22-466): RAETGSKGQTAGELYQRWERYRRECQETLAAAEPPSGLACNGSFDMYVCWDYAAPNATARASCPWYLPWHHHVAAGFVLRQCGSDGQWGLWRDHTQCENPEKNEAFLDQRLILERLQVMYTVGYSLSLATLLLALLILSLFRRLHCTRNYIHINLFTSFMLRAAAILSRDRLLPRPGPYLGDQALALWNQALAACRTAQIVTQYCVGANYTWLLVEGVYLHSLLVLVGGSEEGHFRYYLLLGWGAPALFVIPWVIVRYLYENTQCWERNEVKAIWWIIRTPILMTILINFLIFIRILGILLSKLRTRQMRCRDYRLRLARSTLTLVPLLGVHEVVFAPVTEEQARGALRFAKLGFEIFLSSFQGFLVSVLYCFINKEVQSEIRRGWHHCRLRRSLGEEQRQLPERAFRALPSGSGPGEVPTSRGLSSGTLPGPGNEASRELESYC
How it is done:
(§1) The ability of glucagon analogs to induce cAMP was measured in a firefly luciferase-based reporter assay. […] At the end of the incubation 100 microliters of LucLite luminescence substrate reagent (Perkin-Elmer, Wellesley, Mass.) were added to each well. […] Effective 50% concentrations were calculated by using Origin software (OriginLab, Northampton, Mass.

The target of a further assay is T2, GLP-1 receptor (Homo sapiens, UniProt P43220).
T2 construct: expressed in transfected cells; host or cells: HEK293
The protocol: as §1

Another assay addresses T3, glucagon receptor (Homo sapiens, UniProt P47871).
T3 construct: expressed in transfected cells; host or cells: HEK293
How it is done: as §1

[1] abbreviates: Table 1, analogs of SEQ ID NO: 37.
Where [2] appears, read: Table 2, analogs of SEQ ID NO: 10.

Numbered stars: 1 amine (or outer) side, 2 acyl side, 3 side chain; on linkers, the order of the positions; unused ones are H or OH. Square brackets hold non-standard residues; d marks the D form. Side chains are listed from the residue outwards. Peptide text beside a SMILES is read from it. * marks the point of attachment. γGlu = O=C(O)[C@H](CCC(=O)[*:2])N[*:1]; Desaminohistidyl = O=C(CCc1c[nH]cn1)*; Palmitoyl = CCCCCCCCCCCCCCCC(=O)*

What is called EC50 is the concentration giving half of the maximal effect. A high value points to weaker potency.

T2 sequence (P43220 24-463): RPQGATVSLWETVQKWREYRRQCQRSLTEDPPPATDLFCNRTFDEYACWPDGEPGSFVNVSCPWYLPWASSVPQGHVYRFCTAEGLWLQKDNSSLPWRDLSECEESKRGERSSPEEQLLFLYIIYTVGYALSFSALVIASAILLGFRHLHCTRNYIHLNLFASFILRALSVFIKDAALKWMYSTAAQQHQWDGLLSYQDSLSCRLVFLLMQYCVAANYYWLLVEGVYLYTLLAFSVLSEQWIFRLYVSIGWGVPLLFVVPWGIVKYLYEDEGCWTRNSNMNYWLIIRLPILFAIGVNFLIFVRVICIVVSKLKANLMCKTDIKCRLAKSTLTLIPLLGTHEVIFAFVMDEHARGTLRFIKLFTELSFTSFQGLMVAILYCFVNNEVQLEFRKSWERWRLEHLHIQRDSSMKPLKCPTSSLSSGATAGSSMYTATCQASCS
T3 sequence (P47871 26-477): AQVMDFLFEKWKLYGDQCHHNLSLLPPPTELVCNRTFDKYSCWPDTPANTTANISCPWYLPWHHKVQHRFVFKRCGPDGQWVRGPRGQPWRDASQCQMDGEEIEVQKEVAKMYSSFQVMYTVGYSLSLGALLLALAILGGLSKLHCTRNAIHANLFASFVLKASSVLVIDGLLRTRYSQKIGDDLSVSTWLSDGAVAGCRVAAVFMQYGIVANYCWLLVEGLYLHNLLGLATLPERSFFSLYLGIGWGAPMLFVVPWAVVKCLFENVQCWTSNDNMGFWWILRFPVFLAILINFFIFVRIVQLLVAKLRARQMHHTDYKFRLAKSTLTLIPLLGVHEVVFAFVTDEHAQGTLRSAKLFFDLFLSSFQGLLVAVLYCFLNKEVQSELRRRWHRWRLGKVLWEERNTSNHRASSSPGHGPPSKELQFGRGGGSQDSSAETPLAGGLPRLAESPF

With `CCCCCCCCCCCCCCCC(=O)N[C@@H](CCC(=O)NCCCC[C@H](NC(=O)[C@H](CC(=O)O)NC(=O)[C@H](CO)NC(=O)[C@@H](NC(=O)[C@H](Cc1ccccc1)NC(=O)[C@@H](NC(=O)CNC(=O)[C@H](CCC(N)=O)NC(=O)[C@H](C)NC(=O)CCc1c[nH]cn1)[C@@H](C)O)[C@@H](C)O)C(=O)N[C@@H](CO)C(=O)N[C@@H](CCCCN)C(=O)N[C@@H](Cc1ccc(O)cc1)C(=O)N[C@@H](CC(C)C)C(=O)N[C@@H](CC(=O)O)C(=O)N[C@@H](CCC(=O)O)C(=O)N[C@@H](CCCNC(=N)N)C(=O)N[C@@H](C)C(=O)N[C@@H](C)C(=O)N[C@@H](CCC(N)=O)C(=O)N[C@@H](CC(=O)O)C(=O)N[C@@H](Cc1ccccc1)C(=O)N[C@H](C(=O)N[C@@H](CCC(N)=O)C(=O)N[C@@H](Cc1c[nH]c2ccccc12)C(=O)N[C@@H](CC(C)C)C(=O)N[C@@H](CC(C)C)C(=O)N[C@@H](CCC(=O)O)C(=O)NCC(=O)NCC(=O)N1CCC[C@H]1C(=O)N[C@@H](CO)C(=O)N[C@@H](CO)C(=O)NCC(=O)N[C@@H](C)C(=O)N1CCC[C@H]1C(=O)N1CCC[C@H]1C(=O)N1CCC[C@H]1C(=O)N[C@@H](CO)C(N)=O)C(C)C)C(=O)O` [compound 22] (Desaminohistidyl-AQGTFTSDK([γGlu-Palmitoyl])SKYLDERAAQDFVQWLLEGGPSSGAPPPS-NH2), the EC50 on GIP receptor (setting [1]) is 41 pM; on GLP-1 receptor (setting [1]), 3 pM; at glucagon receptor (setting [1]), 17 pM.
Regarding `CCCCCCCCCCCCCCCC(=O)N[C@@H](CCC(=O)NCCCC[C@H](NC(=O)[C@H](CC(=O)O)NC(=O)[C@H](CO)NC(=O)[C@@H](NC(=O)[C@H](Cc1ccccc1)NC(=O)[C@@H](NC(=O)CNC(=O)[C@H](CCC(=O)O)NC(=O)[C@H](C)NC(=O)[C@@H](Cc1ccc(O)cc1)NC(C)=O)[C@@H](C)O)[C@@H](C)O)C(=O)N[C@@H](CO)C(=O)N[C@@H](CCCCN)C(=O)N[C@@H](Cc1ccc(O)cc1)C(=O)N[C@@H](CC(C)C)C(=O)N[C@@H](CC(=O)O)C(=O)N[C@@H](CCC(=O)O)C(=O)N[C@@H](CCCNC(=N)N)C(=O)N[C@@H](C)C(=O)N[C@@H](C)C(=O)N[C@@H](CCC(N)=O)C(=O)N[C@@H](CC(=O)O)C(=O)N[C@@H](Cc1ccccc1)C(=O)N[C@H](C(=O)N[C@@H](CCC(N)=O)C(=O)N[C@@H](Cc1c[nH]c2ccccc12)C(=O)N[C@@H](CC(C)C)C(=O)N[C@@H](CC(C)C)C(=O)N[C@@H](CCC(=O)O)C(=O)N[C@@H](C)C(=O)NCC(=O)N1CCC[C@H]1C(=O)N[C@@H](CO)C(=O)N[C@@H](CO)C(=O)NCC(=O)N[C@@H](C)C(=O)N1CCC[C@H]1C(=O)N1CCC[C@H]1C(=O)N1CCC[C@H]1C(=O)N[C@@H](CO)C(N)=O)C(C)C)C(=O)O` [compound 144] (Ac-[dY]AEGTFTSDK([γGlu-Palmitoyl])SKYLDERAAQDFVQWLLEAGPSSGAPPPS-NH2), the EC50 amounted to 3 pM at GIP receptor (setting [2]), 17 pM on GLP-1 receptor (setting [2]) and 1300 pM on glucagon receptor (setting [2]).
For the molecule `CCCCCCCCCCCCCCCC(=O)N[C@@H](CCC(=O)NCCCC[C@H](NC(=O)[C@H](CC(=O)O)NC(=O)[C@H](CO)NC(=O)[C@@H](NC(=O)[C@H](Cc1ccccc1)NC(=O)[C@@H](NC(=O)CNC(=O)[C@H](CCC(N)=O)NC(=O)[C@H](C)NC(=O)[C@@H](Cc1cccs1)NC(C)=O)[C@@H](C)O)[C@@H](C)O)C(=O)N[C@@H](CO)C(=O)N[C@@H](CCCCN)C(=O)N[C@@H](Cc1ccc(O)cc1)C(=O)N[C@@H](CC(C)C)C(=O)N[C@@H](CC(=O)O)C(=O)N[C@@H](CCC(=O)O)C(=O)N[C@@H](CCCNC(=N)N)C(=O)N[C@@H](C)C(=O)N[C@@H](C)C(=O)N[C@@H](CCC(N)=O)C(=O)N[C@@H](CC(=O)O)C(=O)N[C@@H](Cc1ccccc1)C(=O)N[C@H](C(=O)N[C@@H](CCC(N)=O)C(=O)N[C@@H](Cc1c[nH]c2ccccc12)C(=O)N[C@@H](CC(C)C)C(=O)N[C@@H](CC(C)C)C(=O)N[C@@H](CCC(=O)O)C(=O)NCC(=O)NCC(=O)N1CCC[C@H]1C(=O)N[C@@H](CO)C(=O)N[C@@H](CO)C(=O)NCC(=O)N[C@@H](C)C(=O)N1CCC[C@H]1C(=O)N1CCC[C@H]1C(=O)N1CCC[C@H]1C(=O)N[C@@H](CO)C(N)=O)C(C)C)C(=O)O` [compound 17], the EC50 at GIP receptor (setting [1]) amounted to 11 pM; on GLP-1 receptor (setting [1]) it was 5 pM; on glucagon receptor (setting [1]), 8 pM.
On to `CCCCCCCCCCCCCCCC(=O)N[C@@H](CCC(=O)NCCCC[C@H](NC(=O)[C@H](CC(=O)O)NC(=O)[C@H](CO)NC(=O)[C@@H](NC(=O)[C@H](Cc1ccccc1)NC(=O)[C@@H](NC(=O)CNC(=O)[C@H](CCC(N)=O)NC(=O)[C@@H]1CCCN1C(=O)[C@H](N)Cc1c[nH]cn1)[C@@H](C)O)[C@@H](C)O)C(=O)N[C@@H](CO)C(=O)N[C@@H](CCCCN)C(=O)N[C@@H](Cc1ccc(O)cc1)C(=O)N[C@@H](CC(C)C)C(=O)N[C@@H](CC(=O)O)C(=O)N[C@@H](CCC(=O)O)C(=O)N[C@@H](CCCNC(=N)N)C(=O)N[C@@H](C)C(=O)N[C@@H](C)C(=O)N[C@@H](CCC(N)=O)C(=O)N[C@@H](CC(=O)O)C(=O)N[C@@H](Cc1ccccc1)C(=O)N[C@H](C(=O)N[C@@H](CCC(N)=O)C(=O)N[C@@H](Cc1c[nH]c2ccccc12)C(=O)N[C@@H](CC(C)C)C(=O)N[C@@H](CC(C)C)C(=O)N[C@@H](CCC(=O)O)C(=O)NCC(=O)NCC(=O)N1CCC[C@H]1C(=O)N[C@@H](CO)C(=O)N[C@@H](CO)C(=O)NCC(=O)N[C@@H](C)C(=O)N1CCC[C@H]1C(=O)N1CCC[C@H]1C(=O)N1CCC[C@H]1C(=O)N[C@@H](CO)C(N)=O)C(C)C)C(=O)O` [compound 27] (H-[dH]PQGTFTSDK([γGlu-Palmitoyl])SKYLDERAAQDFVQWLLEGGPSSGAPPPS-NH2; N-terminus assumed), for which the EC50 at GIP receptor (setting [1]) was determined as 80 pM; at GLP-1 receptor (setting [1]), 3 pM; on glucagon receptor (setting [1]), 34 pM.
On to `CCCCCCCCCCCCCCCC(=O)N[C@@H](CCC(=O)NCCCC[C@H](NC(=O)[C@H](CC(=O)O)NC(=O)[C@H](CO)NC(=O)[C@@H](NC(=O)[C@H](Cc1ccccc1)NC(=O)[C@@H](NC(=O)CNC(=O)[C@H](CCC(=O)O)NC(=O)[C@H](C)NC(=O)CCc1ccc(O)cc1)[C@@H](C)O)[C@@H](C)O)C(=O)N[C@@H](CO)C(=O)N[C@@H](CCCCN)C(=O)N[C@@H](Cc1ccc(O)cc1)C(=O)N[C@@H](CC(C)C)C(=O)N[C@@H](CC(=O)O)C(=O)N[C@@H](CCC(=O)O)C(=O)N[C@@H](CCCNC(=N)N)C(=O)N[C@@H](C)C(=O)N[C@@H](C)C(=O)N[C@@H](CCC(N)=O)C(=O)N[C@@H](CC(=O)O)C(=O)N[C@@H](Cc1ccccc1)C(=O)N[C@H](C(=O)N[C@@H](CCC(N)=O)C(=O)N[C@@H](Cc1c[nH]c2ccccc12)C(=O)N[C@@H](CC(C)C)C(=O)N[C@@H](CC(C)C)C(=O)N[C@@H](CCC(=O)O)C(=O)NCC(=O)NCC(=O)N1CCC[C@H]1C(=O)N[C@@H](CO)C(=O)N[C@@H](CO)C(=O)NCC(=O)N[C@@H](C)C(=O)N1CCC[C@H]1C(=O)N1CCC[C@H]1C(=O)N1CCC[C@H]1C(=O)N[C@@H](CO)C(N)=O)C(C)C)C(=O)O` [compound 145], for which the EC50 came out at 3 pM at GIP receptor (setting [2]), 3 pM at GLP-1 receptor (setting [2]) and 3730 pM at glucagon receptor (setting [2]).
